Data as given in article PMC11403616, “Arcopilins: A New Family of Staphylococcus aureus Biofilm Disruptors from the Soil Fungus Arcopilus navicularis” (Journal of Medicinal Chemistry, 2024).
Converted amounts (≈) assume the structure as drawn. “Also recorded” adds a separate entry of the source. Read-outs that look alike come from different tables or passages of the source.

Assays:
[1] = test system: B. subtilis DSM 10; assay: MIC against bacteria (antimicrobial assay); format: cell-based, Bacillus subtilis; conditions: for MIC: Bacillus subtilis, DSM10, DSM 10, – = no activity observed under test conditions; for MIC B. subtilis: supplement CSV, decimal comma, unit not given, in µg/mL
Description: (§1) The antimicrobial activities of compounds 1–7 (Acp A–G) were assessed against different bacterial and fungal strains in addition to their cytotoxic effects on two mammalian cell lines. The tested microorganisms comprised a diverse array of clinically relevant pathogens, encompassing sensitive indicator strains. Among the Gram-positive bacteria were Bacillus subtilis, Staphylococcus aureus, and Mycolicibacterium smegmatis. Gram-negative bacteria included Acinetobacter baumannii, Chromobacterium violaceum, Escherichia coli, and Pseudomonas aeruginosa. Additionally, filamentous fungi such as Mucor hiemalis and yeasts including Candida albicans, Wickerhamomyces anomalus, Rhodotorula glutinis, and Schizosaccharomyces pombe were included. Generally, all compounds presented similar biological properties, summarized in weak or no activity against fungal pathogens as well as weak to moderate inhibition of Gram-positive bacteria (Table 2).
(§2) The antimicrobial and cytotoxic assays were performed according to the methods reported previously.[57]

[2] = test system: S. aureus DSM 346; assay: MIC against bacteria (antimicrobial assay); format: cell-based, Staphylococcus aureus; conditions: for MIC: Staphylococcus aureus, DSM346, DSM 346, – = no activity observed under test conditions; for MIC S. aureus: supplement CSV, decimal comma, unit not given, in µg/mL
Description: as §1, §2

[3] = test system: two mammalian cell lines; assay: Cytotoxic effects on two mammalian cell lines (summary); format: cell-based; conditions: KB-3-1 and L929
Description: as §1, §2

[4] = test system: M. hiemalis DSM 2656; assay: MIC against fungi (antimicrobial assay); format: cell-based, Mucor hiemalis; conditions: for MIC: Mucor hiemalis, DSM2656, DSM 2656, – = no activity observed under test conditions; for MIC M. hiemalis: supplement CSV, decimal comma, unit not given, in µg/mL
Description: as §1, §2

[5] = test system: KB-3-1 (ACC 158); assay: Cytotoxicity against mammalian cell lines; format: cell-based; conditions: Homo sapiens
Description: as §1, §2

[6] = test system: L929 (ACC 2); assay: Cytotoxicity against mammalian cell lines; format: cell-based; conditions: Mus musculus
Description: as §1, §2

[7] = test system: preformed biofilms of S. aureus DSM 1104; assay: Disruption of preformed biofilms, crystal violet assay; format: cell-based, Staphylococcus aureus
Description: Therefore, Acp A–G were evaluated against preformed biofilms of S. aureus using crystal violet staining.[47]
Cultures of S. aureus DSM 1104 were prepared by inoculating 1 mL aliquots from a frozen stock (−20 °C) into 25 mL of CASO medium and incubating them overnight at 37 °C with shaking at 130 rpm.
The crystal violet assay was performed according to a previously reported procedure.[47] Arcopilins A–G were tested in serial dilutions (250–2 μg/mL), with methanol and microporenic acid A (MAA) as negative and positive controls, respectively. Statistical differences between samples and the controls were determined using a two-tailed Student’s t test, with statistical significance defined as p < 0.01. Statistical analysis was carried out using GraphPad Prism 9 (GraphPad Software, San Diego, CA).[58]

[8] = test system: M. smegmatis ATCC 700084; assay: MIC against bacteria (antimicrobial assay); format: cell-based, Mycolicibacterium smegmatis
Description: as §1, §2

[9] = test system: different bacterial and fungal strains; assay: Antimicrobial activities against bacterial and fungal strains (whole panel); format: cell-based; conditions: whole panel of bacteria and fungi
Description: as §1, §2

[10] = test system: planktonic cells of S. aureus DSM 1104; assay: Checkerboard broth dilution assay (FICI); format: cell-based, Staphylococcus aureus
Excerpt: After assessing the effects of Acp A on the pathogen S. aureus, we delved deeper into the interaction of Acp A with established antibiotics (GM and Vac). This exploration focused on both planktonic cells and preformed biofilms of S. aureus. Consequently, we used a checkerboard assay to determine the fractional inhibitory concentration index (FICI) for combinations involving Acp A, GM, or Vac based on both their MIC values in combination.[49]
The interaction between arcopilin A, vancomycin, and gentamicin against S. aureus DSM 1104 was evaluated using a checkerboard broth dilution method to determine the fractional inhibitory concentration indices (FICIs), calculated as FIC = MIC of drug A in combination/MIC of drug A alone + MIC of drug B in combination/MIC of drug B alone.[59] The FICIs were interpreted as synergistic (FICI ≤ 0.5). For this assay, a seed culture was prepared as previously described to inoculate fresh CASO with 4% glucose broth to match the turbidity of a 0.1 McFarland standard suspension. Then, 100 μL of bacterial suspension was distributed in 96-well nontissue microtiter plates (TPP nontissue culture ref no. 92197, Switzerland). Arcopilin A (7.8–2 μg/mL) and antibiotics (vancomycin and gentamicin: 31.3–0.016 μg/mL) were added in increasing concentrations in columns and rows, respectively. The experiments were conducted in duplicate.

[11] = test system: preformed biofilms of S. aureus DSM 1104; assay: CFU count analysis, synergistic effects on preformed biofilms; format: cell-based, Staphylococcus aureus; conditions: Acp A 7.8–3.9 μg/mL, GM 7.8–2 μg/mL, Vac 15.6–3.9 μg/mL
Description: The seed culture of S. aureus DSM 1104 was prepared as previously described, and the OD600 was adjusted to match the turbidity of a 0.001 McFarland standard. Then, 150 μL of bacterial solution in CASO with 4% glucose broth was incubated in 96-well tissue plates (TPP tissue culture ref no. 92196, Switzerland) for 24 h at 150 rpm. […] Methanol (2.5%) was used as the solvent control. The plates were incubated for a further 24 h at 37 °C. Colony-forming unit (CFU) count analysis of arcopilin A, antibiotics (vancomycin and gentamicin), and their combinations was performed as previously described.[58] Cells were suspended in the well 50 times. Dilution series in 1 to 10 steps (20 μL in 200 μL) were prepared down to a final dilution level of 10^–6, and 100 μL of this last dilution was platted on LB agar plates using 3 mm small glass beads (5 to 10, Omnilab, Germany) to homogeneously spread the liquid. Individual colonies on agar plates were counted after incubation at 30 °C for 24 and 48 h.[60] Afterward, CFUs were calculated by considering the dilution factors. Error bars indicate the SD of duplicate with two repeats.

[12] = test system: S. aureus; conditions: cited from earlier work
[13] = test system: methicillin-resistant S. aureus (MRSA); conditions: cited from earlier work
[14] = test system: human cancer cell lines; conditions: cited from earlier work
[15] = KB 3-1, ACC 158, – = no activity observed under test conditions, read-out: IC50 against mammalian cell lines, KB-3-1
[16] = L929, ACC 2, – = no activity observed under test conditions, read-out: IC50 against mammalian cell lines, L929

Molecule: C[C@H](C[C@@H](C)[C@H](C)O)C[C@H](C)C(=O)C1=C(O)/C(=C/c2ccccc2)NC1=O [Acp B, Arcopilin B]
- MIC [1]: 66.7 µg/mL (≈ 180 µM)
- MIC B. subtilis [1]: 66,7
- MIC [2]: 66.7 µg/mL (≈ 180 µM)
- MIC S. aureus [2]: 66,7
- cytotoxic properties (in words) [3]: weak or no cytotoxic effects

Molecule: C[C@H](C[C@@H](C)[C@H](C)OC=O)C[C@H](C)C(=O)C1=C(O)/C(=C/c2ccccc2)NC1=O [Acp C, Arcopilin C]
- MIC [1]: 33.3 µg/mL (≈ 83.4 µM)
- MIC B. subtilis [1]: 33,3
- MIC [2]: 33.3 µg/mL (≈ 83.4 µM)
- MIC S. aureus [2]: 33,3
- MIC [4]: 66.7 µg/mL (≈ 167 µM)
- MIC M. hiemalis [4]: 66,7
- IC50 [5, 15]: 800 ng/mL (≈ 2 µM)
- IC50 [6, 16]: 1400 ng/mL (≈ 3.5 µM)
- efficacy toward preformed biofilms ([7]; at 3.9 μg/mL): 35–45%
- effectiveness in the dispersal of preformed biofilms ([7]; between 7.8 μg/mL and 250 μg/mL): approximately 50%
- disrupting effect on preformed biofilms (in words) ([7]; tested 250–2 μg/mL): most promising disrupting effects; also recorded: remarkable effectiveness

Molecule: CC[C@H](C)C[C@@H](C)C[C@H](C)C(=O)C1=C(O)/C(=C/c2ccccc2)NC1=O [Acp D, Arcopilin D]
- MIC [1]: 4.2 µg/mL (≈ 11.8 µM)
- MIC B. subtilis [1]: 4,2
- MIC ([8]; Mycolicibacterium smegmatis, ATCC700084, ATCC 700084, – = no activity observed under test conditions): 66.7 µg/mL (≈ 188 µM)
- MIC M. smegmatis ([8]; supplement CSV, decimal comma, unit not given, in µg/mL): 66,7
- MIC [4]: 66.7 µg/mL (≈ 188 µM)
- MIC M. hiemalis [4]: 66,7
- IC50 [5, 15]: 800 ng/mL (≈ 2.25 µM)
- IC50 [6, 16]: 1700 ng/mL (≈ 4.78 µM)
- lowest concentration with significant dispersal effects [7]: 31.3 µg/mL

Molecule: C[C@@H](C[C@H](C)C(=O)C1=C(O)/C(=C/c2ccccc2)NC1=O)C[C@](C)(O)C(=O)CO [Acp E, Arcopilin E]
- antimicrobial activity (in words) [9]: did not exhibit any antimicrobial activity
- cytotoxic properties (in words) [3]: weak or no cytotoxic effects

Molecule: C[C@@H](C[C@H](C)C(=O)C1=C(O)/C(=C/c2ccccc2)NC1=O)C[C@](C)(O)[C@@H](O)C(=O)O [Acp F, Arcopilin F]
- antimicrobial activity (in words) [9]: did not exhibit any antimicrobial activity
- cytotoxic properties (in words) [3]: weak or no cytotoxic effects

Molecule: CC[C@H](C)[C@@H]1O[C@H](c2c(O)c(-c3ccccc3)cn(O)c2=O)[C@@H](C)C[C@@H]1C [Acp G, Arcopilin G]
- MIC [1]: 8.3 µg/mL (≈ 22.3 µM)
- MIC B. subtilis [1]: 8,3
- MIC [2]: 16.6 µg/mL (≈ 44.7 µM)
- MIC S. aureus [2]: 16,6
- IC50 [5, 15]: 0.2 ng/mL (≈ 0.000538 µM)
- IC50 [6, 16]: 0.024 ng/mL (≈ 6.46e-05 µM)
- cytotoxic properties (in words) [3]: most cytotoxic metabolite

Molecule: C/C(=C\c1csc(C)n1)[C@@H]1C[C@@H]2O[C@]2(C)CCC[C@H](C)[C@H](O)[C@@H](C)C(=O)C(C)(C)[C@@H](O)CC(=O)O1 [Epothilone B, reference compound]
- IC50 ([5]; KB 3-1, read-out: IC50 against mammalian cell lines, KB-3-1): 0.0086 ng/mL (≈ 1.69e-05 µM)
- IC50 ([6]; L929, read-out: IC50 against mammalian cell lines, L929): 0.086 ng/mL (≈ 0.000169 µM)

Molecule: CN(C)[C@@H]1C(O)=C(C(N)=O)C(=O)[C@@]2(O)C(O)=C3C(=O)c4c(O)cccc4[C@@](C)(O)[C@H]3[C@H](O)[C@@H]12 [Oxytetracycline, reference compound]
- MIC [1]: 8.3 µg/mL (≈ 18 µM)

Molecule: CN[C@H](CC(C)C)C(=O)N[C@H]1C(=O)N[C@@H](CC(N)=O)C(=O)N[C@H]2C(=O)N[C@H]3C(=O)N[C@H](C(=O)N[C@H](C(=O)O)c4cc(O)cc(O)c4-c4cc3ccc4O)[C@H](O)c3ccc(c(Cl)c3)Oc3cc2cc(c3O[C@@H]2O[C@H](CO)[C@@H](O)[C@H](O)[C@H]2O[C@H]2C[C@](C)(N)[C@H](O)[C@H](C)O2)Oc2ccc(cc2Cl)[C@H]1O [Vac, vancomycin]
- increase of the potency of the antibiotic in combination with Acp A ([10]; Acp A 3.9 μg/mL, MIC alone versus in combination): ≤ 31 fold
- MIC ([10]; Staphylococcus aureus, DSM1104, read-out: MIC of each single compound (MICs)): 2 µg/mL
- MIC in combination (MICc), Acp A and Vac ([10]; combination of Acp A (3.9 μg/mL) with Vac): 0.065 µg/mL
- improvement in the inhibitory effects in combination with Acp A [11]: ~3 fold

Molecule: C/C=C(\C)[C@@H]1C(C)=C[C@]2(C)C[C@H](C)CC[C@H]2[C@@H]1C(=O)C1=C[C@](Cc2ccccc2)(OC)NC1=O [chaetolivacine B]
- antibacterial properties against S. aureus [12]: moderate antibacterial properties
- antibacterial properties against MRSA [13]: moderate antibacterial properties

Molecule: C/C=C(\C)[C@H]1C(C)=C[C@@]2(C)C[C@@H](C)CC[C@@H]2[C@H]1C(=O)C1=C[C@@](CC(C)C)(OC)NC1=O [myceliothermophin C]
- antitumor activity against a number of human cancer cell lines [14]: potent antitumor activity

Molecule: C/C=C(\C)[C@H]1C(C)=C[C@@]2(C)C[C@@H](C)CC[C@@H]2[C@H]1C(=O)C1=C[C@](CC(C)C)(OC)NC1=O [myceliothermophin D]
- antitumor activity against a number of human cancer cell lines [14]: potent antitumor activity

Molecule: myceliothermophin E
- antitumor activity against a number of human cancer cell lines [14]: potent antitumor activity
